What was measured:
[1] = tested on: a-smooth muscle actin protein level in AB8/13 human podocytes; test: Western blotting of α-smooth muscle actin protein level in differentiated AB8/13 human podocytes; format: cell-based; details: FIG. 2; substance alone (without TGF-β1), compared to dimethyl sulfoxide; 6 days incubation
Method: (§1) Firstly, AB8/13 human podocytes were incubated in a 33[…] incubator containing 5% carbon dioxide until they grew to a confluence of 80%. The cells were transferred to a 37.5[…] incubator containing 5% carbon dioxide to be incubated for 14 days so that the cells were differentiated. After which, the differentiated cells were incubated with culture medium containing various substances for 6 days. Finally, total protein of the differentiated cells treated with various substances was extracted for Western blotting assay.
(§2) As stated in Diabetes, 2011 Jun; 60(6): 1779-1788, transforming growth factor-β1 (TGF-β1) is greatly expressed in the renal tissue of a diabetic nephropathy patient. This paper further has reported that transforming growth factor-β1 can dedifferentiate differentiated podocytes and induce the disappearance of pseudopods. As stated in Cell Tissue Res. 2012 Jan; 347(1): 141-54, transforming growth factor-β1 participates in renal fibrosis, renal parenchyma degeneration and loss of function associated with chronic kidney disease. For the above reasons, podocytes treated with transforming growth factor-β1 can be used as a cell culture model for renal disease.

[2] = tested on: nephrin protein level in AB8/13 human podocytes; test: Western blotting of nephrin protein level in differentiated AB8/13 human podocytes; format: cell-based; details: FIG. 1; substance alone, compared to dimethyl sulfoxide; 6 days incubation
Method: as §1, §2

For transforming growth factor-β1, which “a-smooth muscle actin protein level” value [1] is on record?
Its value is “upregulate”.

And the nephrin protein level [2]?
Its nephrin protein level is “downregulate”.

Reference: patent US20190374590A1, “USE OF CORDYCEPS MILITARIS EXTRACT FOR TREATMENT OF RENAL DISEASE” (Nan Pao Resins Chemical Co., Ltd., priority 2018, published 2019)
